This experiment addresses T1, Protein O-GlcNAcase (Homo sapiens, UniProt O60502).
T1 sequence (O60502 whole entry): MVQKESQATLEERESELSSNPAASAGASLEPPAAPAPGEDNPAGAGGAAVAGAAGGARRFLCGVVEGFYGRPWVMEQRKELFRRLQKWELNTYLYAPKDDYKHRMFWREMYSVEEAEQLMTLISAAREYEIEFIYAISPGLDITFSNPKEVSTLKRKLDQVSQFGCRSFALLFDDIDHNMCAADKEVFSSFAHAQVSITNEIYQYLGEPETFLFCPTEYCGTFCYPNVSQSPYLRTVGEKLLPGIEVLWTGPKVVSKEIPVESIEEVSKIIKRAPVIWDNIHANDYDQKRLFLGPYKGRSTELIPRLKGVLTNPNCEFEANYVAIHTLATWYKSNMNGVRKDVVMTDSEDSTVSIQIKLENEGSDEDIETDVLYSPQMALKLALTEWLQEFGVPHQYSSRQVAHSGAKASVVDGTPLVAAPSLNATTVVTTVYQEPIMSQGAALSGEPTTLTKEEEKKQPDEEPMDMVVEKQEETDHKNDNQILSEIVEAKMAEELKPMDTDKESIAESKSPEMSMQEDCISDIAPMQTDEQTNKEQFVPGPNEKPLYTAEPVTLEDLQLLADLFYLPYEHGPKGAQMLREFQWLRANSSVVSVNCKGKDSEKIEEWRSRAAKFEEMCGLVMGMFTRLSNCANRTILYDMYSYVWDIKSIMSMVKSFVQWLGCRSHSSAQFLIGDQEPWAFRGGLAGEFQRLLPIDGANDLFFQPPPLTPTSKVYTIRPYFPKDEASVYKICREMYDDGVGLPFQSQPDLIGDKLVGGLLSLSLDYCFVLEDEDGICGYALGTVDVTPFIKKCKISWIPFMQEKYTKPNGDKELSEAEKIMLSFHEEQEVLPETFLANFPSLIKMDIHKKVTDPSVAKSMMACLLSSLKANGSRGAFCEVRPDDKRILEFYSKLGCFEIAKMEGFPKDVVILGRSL
Description: Enzyme Inhibition Biochemical Assay. The procedure:
Recombinant full length human OGA enzyme was purchased from Origene. 4-MUGlcNAc substrate was purchased from Sigma. All other reagents were purchased from Sigma or Fisher. Assay buffer consists of the McIlvaine buffer system, pH 6.4 (0.2M Na2HPO4 mixed with 0.1M citric acid) and 0.01% BSA. […] Reactions were incubated for 90 minutes at room temperature and quenched with 40 μl of 3M glycine, pH 10 and read on a Perkin Elmer Envision plate reader (Ex: 355 nm/Em: 460 nm). Compounds were tested with a 10-point dose-response starting from 20 μM with a 4-fold dilution. Data was fit using GraphPad Prism using a 4-parameter fit with variable slope.

The values that follow come from BindingDB's records for patent US20240308995 (Biogen Ma, 2024).

pIC50: −log10 of the molar value. Where only a bound is given, the exact number is not on record here.

Usually pIC50 stands for −log10 of the IC50, conventionally taken in molar units. Read a low pIC50 as a large IC50. Consider `CC(=O)Nc1ncc(CN2C[C@H](Oc3cc(=O)n(C)cn3)C[C@@H]2C)s1` [US20240308995, Example 1-70], for which the pIC50 was above 9.00.
